Legend:
PIK3CA = target: T1, PIK3CA (Homo sapiens, UniProt P42336); assay: In vitro ELISA target engagement assay for PIK3CA in Jurkat cellular lysate (competition with PIK3CA Biotin Probe); format: binding; settings: 1 hour at rt, then 500 nM PIK3CA Biotin Probe, read-out: Elisa Target Engagement Assay (TE50)
T1 construct: endogenous in cells; host or cells: Jurkat cell lysate
How it was run: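 Competition format in Jurkat lysate: compound (serial dilutions, top 200 μM) for 1 h at rt, then 500 nM final biotinylated PIK3CA probe for 1 h at rt. Sandwich ELISA with capture antibody and Neutravidin-HRP luminescence read-out measured probe-labelled PIK3CA, giving TE50.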

[1] = system: pAKT(S473) in FaDu cell line; assay: In vitro Phospho-AKT(S473) HTRF analysis in FaDu cells; format: cell-based; settings: Homo sapiens, 0.5 h; for IC50: FaDu cells, 30 minutes at 37° C.; for Emax: FaDu, read-out: FaDu pAKT Imax % control
Protocol: Example 5. In Vitro Phosgho-AKT(S473) Analysis
Functional activity of the compounds to inhibit pAKT were assessed in FaDu or H358 cell lines as indicated below.
• Complete Media • FBS, Corning catalog #35-010-CV • Anti-Anti, Gibco catalog #15240-062 • 96 well plate, Corning catalog #3610 • TrypLE, Gibco catalog #12604013 • Phospho-AKT(S473) HTRF kit, Cisbio catalog #64AKSPET
Cells were detached from the tissue culture flask with TrypLE. The cells were pelleted at 500×g for 5 min, TrypLe was removed and then resuspended in the necessary volume of media+1% FBS to give the appropriate cell density (17,500 cells/mL for FaDu; 20,000 cells/mL for H358). 100 μL of cell suspension/well was dispensed into the 96-well plate while keeping the outer wells of the plate free of cells and filled with PBS to prevent evaporation of interior wells. The plate was incubated at 37° C. and allowed to adhere overnight. The cells were treated with a dose response of compound and incubated at 37° C. for 30 minutes. The cells were then processed and pAKT(S473) levels were assessed following the specifications of the Cisbio HTRF kit.

T1 sequence (P42336 whole entry): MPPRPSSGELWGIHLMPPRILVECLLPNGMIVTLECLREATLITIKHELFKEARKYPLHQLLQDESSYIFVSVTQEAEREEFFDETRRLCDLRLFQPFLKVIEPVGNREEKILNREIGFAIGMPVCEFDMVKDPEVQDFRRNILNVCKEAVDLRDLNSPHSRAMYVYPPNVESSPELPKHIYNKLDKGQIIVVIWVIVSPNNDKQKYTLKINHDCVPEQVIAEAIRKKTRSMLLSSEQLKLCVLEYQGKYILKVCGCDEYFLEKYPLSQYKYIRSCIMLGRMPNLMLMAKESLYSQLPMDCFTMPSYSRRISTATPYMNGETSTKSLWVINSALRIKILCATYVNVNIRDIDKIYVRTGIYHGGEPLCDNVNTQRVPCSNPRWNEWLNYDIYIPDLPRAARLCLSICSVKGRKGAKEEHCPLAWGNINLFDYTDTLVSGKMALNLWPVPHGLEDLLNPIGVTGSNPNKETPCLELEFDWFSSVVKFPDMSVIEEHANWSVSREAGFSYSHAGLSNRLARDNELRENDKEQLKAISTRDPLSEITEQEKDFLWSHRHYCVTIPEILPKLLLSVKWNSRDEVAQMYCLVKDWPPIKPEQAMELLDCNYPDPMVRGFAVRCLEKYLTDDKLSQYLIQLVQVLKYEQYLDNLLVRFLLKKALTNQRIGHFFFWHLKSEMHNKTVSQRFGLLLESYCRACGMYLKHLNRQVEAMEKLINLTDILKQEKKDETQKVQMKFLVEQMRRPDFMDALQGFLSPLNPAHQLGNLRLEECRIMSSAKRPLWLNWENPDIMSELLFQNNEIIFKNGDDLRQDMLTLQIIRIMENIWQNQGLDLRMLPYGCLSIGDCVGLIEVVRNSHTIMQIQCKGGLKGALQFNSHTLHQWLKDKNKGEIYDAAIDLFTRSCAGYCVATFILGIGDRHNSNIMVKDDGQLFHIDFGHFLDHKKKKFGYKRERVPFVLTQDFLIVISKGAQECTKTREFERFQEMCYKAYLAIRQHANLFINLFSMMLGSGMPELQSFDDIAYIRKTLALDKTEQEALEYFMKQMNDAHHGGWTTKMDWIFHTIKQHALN
T1 sequence (P27986 whole entry partner): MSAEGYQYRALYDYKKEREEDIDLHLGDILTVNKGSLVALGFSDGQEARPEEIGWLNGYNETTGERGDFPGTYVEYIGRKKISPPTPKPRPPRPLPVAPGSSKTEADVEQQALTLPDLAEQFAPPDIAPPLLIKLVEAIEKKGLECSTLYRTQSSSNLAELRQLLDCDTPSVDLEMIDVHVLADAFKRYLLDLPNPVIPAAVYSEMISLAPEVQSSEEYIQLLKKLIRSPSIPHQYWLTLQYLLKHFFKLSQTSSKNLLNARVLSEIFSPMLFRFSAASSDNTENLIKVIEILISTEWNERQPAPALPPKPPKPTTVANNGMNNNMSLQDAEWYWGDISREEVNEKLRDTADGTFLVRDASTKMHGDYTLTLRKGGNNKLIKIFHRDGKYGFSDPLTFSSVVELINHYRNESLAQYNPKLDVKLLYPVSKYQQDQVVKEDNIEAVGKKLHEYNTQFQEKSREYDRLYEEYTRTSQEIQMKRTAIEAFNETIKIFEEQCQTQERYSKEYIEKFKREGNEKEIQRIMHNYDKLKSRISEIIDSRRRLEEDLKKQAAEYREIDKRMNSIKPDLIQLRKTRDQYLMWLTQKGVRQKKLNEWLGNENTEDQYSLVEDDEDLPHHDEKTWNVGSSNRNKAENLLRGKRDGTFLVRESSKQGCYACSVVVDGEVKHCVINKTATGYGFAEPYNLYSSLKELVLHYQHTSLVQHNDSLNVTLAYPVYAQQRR

SMILES | IC50 (PIK3CA) [nM] | IC50 [1] [nM] | Emax [1] [%]
C[C@H](/C=C\S(C)(=O)=O)NC(=O)[C@@]1(F)CCCN(C(=O)[C@H]2CN(CC(F)(F)F)C[C@H]2c2ccc(F)cc2Cl)CC1 (single isomer, unassigned) [Compound 167, (R)-1-((3*R,4*R)-4-(2-chloro-4-fluorophenyl)-1-(2,2,2-trifluoroethyl)pyrrolidine-3-carbonyl)-4-fluoro-N-((R,Z)-4-(methylsulfonyl)but-3-en-2-yl)azepane-4-carboxamide] | 580 | 518 | 93.6
C[C@H](/C=C/C(=O)N1CC(F)(F)C1)NC(=O)[C@@]1(F)CCCN(C(=O)c2ccc(Br)cc2-c2ccccc2Cl)CC1 [Compound 243, (R)-1-(5-bromo-2′-chloro-[1,1′-biphenyl]-2-carbonyl)-N-((R,E)-5-(3,3-difluoroazetidin-1-yl)-5-oxopent-3-en-2-yl)-4-fluoroazepane-4-carboxamide] | 670 | 761 | 68.7
C[C@H](/C=C\S(C)(=O)=O)NC(=O)[C@@]1(F)CCCN(C(=O)[C@H]2CN(CC(C)(F)F)C[C@H]2c2ccccc2Cl)CC1 [Compound 180, (R)-1-((3R,4R)-4-(2-chlorophenyl)-1-(2,2-difluoropropyl)pyrrolidine-3-carbonyl)-4-fluoro-N-((R,Z)-4-(methylsulfonyl)but-3-en-2-yl)azepane-4-carboxamide] | 127 | 136 | 96.9
CC(O)c1ccc(S(=O)(=O)N2CC[C@@](F)(C(=O)N[C@H](C)/C=C/C(=O)N3CC(F)(F)C3)C[C@H]2C)c(-c2ccccc2Cl)c1 (mixture of isomers) [Compound 252, (2R,4S)-1-((2′-chloro-5-((RS)-1-hydroxyethyl)-[1,1′-biphenyl]-2-yl)sulfonyl)-N-((R,E)-5-(3,3-difluoroazetidin-1-yl)-5-oxopent-3-en-2-yl)-4-fluoro-2-methylpiperidine-4-carboxamide] | 280 | 248 | 85.8
C[C@H](/C=C\S(=O)(=O)[C@H]1CCN(C)C1)NC(=O)C1(F)CCN(S(=O)(=O)c2ccc(Br)cc2-c2ccccc2Cl)CC1 (single isomer, unassigned) [Compound 238, 1-((5-bromo-2′-chloro-[1,1′-biphenyl]-2-yl)sulfonyl)-4-fluoro-N-((R,Z)-4-(((*S)-1-methylpyrrolidin-3-yl)sulfonyl)but-3-en-2-yl)piperidine-4-carboxamide] | 25 | 29.2 | 
COC[C@@H](/C=C\S(C)(=O)=O)NC(=O)C1(F)CCN(S(=O)(=O)c2ccc(Br)cc2-c2ccccc2Cl)CC1 [Compound 246, (R,Z)-1-((5-bromo-2′-chloro-[1,1′-biphenyl]-2-yl)sulfonyl)-4-fluoro-N-(1-methoxy-4-(methylsulfonyl)but-3-en-2-yl)piperidine-4-carboxamide] | 42 | 163 | 
C[C@H](/C=C\S(C)(=O)=O)NC(=O)C1(F)CCN(S(=O)(=O)c2ccc(N3CCCC3=O)cc2-c2ccccc2Cl)CC1 [Compound 205, (R,Z)-1-((2′-chloro-5-(2-oxopyrrolidin-1-yl)-[1,1′-biphenyl]-2-yl)sulfonyl)-4-fluoro-N-(4-(methylsulfonyl)but-3-en-2-yl)piperidine-4-carboxamide] | 650 | 1120 | 
C[C@H](/C=C/C(=O)N1CC(F)(F)C1)NC(=O)[C@]1(F)CCN(S(=O)(=O)c2ccc(OC(F)F)cc2-c2ccccc2Cl)[C@H](C)C1 [Compound 251, (2R,4S)-1-((2′-chloro-5-(difluoromethoxy)-[1,1′-biphenyl]-2-yl)sulfonyl)-N-((R,E)-5-(3,3-difluoroazetidin-1-yl)-5-oxopent-3-en-2-yl)-4-fluoro-2-methylpiperidine-4-carboxamide] | 260 | 249 | 102
C[C@H](/C=C/C(=O)N1CC(F)(F)C1)NC(=O)[C@]1(F)CCN(S(=O)(=O)c2ccc(C(F)F)cc2-c2ccccc2Cl)[C@H](C)C1 [Compound 253, (2R,4S)-1-((2′-chloro-5-(difluoromethyl)-[1,1′-biphenyl]-2-yl)sulfonyl)-N-((R,E)-5-(3,3-difluoroazetidin-1-yl)-5-oxopent-3-en-2-yl)-4-fluoro-2-methylpiperidine-4-carboxamide] | 160 | 267 | 77.2
C[C@H](/C=C\S(C)(=O)=O)NC(=O)[C@@]1(F)CCCN(S(=O)(=O)c2ccc(C(F)(F)F)cc2-c2ccccc2Cl)CC1 [Compound 310, (R)-1-((2′-chloro-5-(trifluoromethyl)-[1,1′-biphenyl]-2-yl)sulfonyl)-4-fluoro-N—((R,Z)-4-(methylsulfonyl)but-3-en-2-yl)azepane-4-carboxamide] | 85 | 77.1 | 
COCc1ccc(S(=O)(=O)N2CC[C@@](F)(C(=O)N[C@H](C)/C=C/C(=O)N3CC(F)(F)C3)C[C@H]2C)c(-c2ccccc2Cl)c1 [Compound 156, (2R,4S)-1-((2′-chloro-5-(methoxymethyl)-[1,1′-biphenyl]-2-yl)sulfonyl)-N-((R,E)-5-(3,3-difluoroazetidin-1-yl)-5-oxopent-3-en-2-yl)-4-fluoro-2-methylpiperidine-4-carboxamide] | 520 | 348 | 99.2
C[C@H](/C=C\S(C)(=O)=O)NC(=O)[C@@]1(F)CCCN(C(=O)c2ccc(Br)cc2-c2ccccc2Cl)CC1 [Compound 241, (R)-1-(5-bromo-2′-chloro-[1,1′-biphenyl]-2-carbonyl)-4-fluoro-N-((R,Z)-4-(methylsulfonyl)but-3-en-2-yl)azepane-4-carboxamide] | 62 | 281 | 95.3
C[C@H](/C=C/C(=O)N1CC(F)C1)NC(=O)C1(F)CCN(S(=O)(=O)c2ccc(C(F)(F)F)cc2-c2ccccc2Cl)CC1 [Compound 216, (R,E)-1-((2′-chloro-5-(trifluoromethyl)-[1,1′-biphenyl]-2-yl)sulfonyl)-4-fluoro-N-(5-(3-fluoroazetidin-1-yl)-5-oxopent-3-en-2-yl)piperidine-4-carboxamide] | 550 | 688 | 108
C[C@H](/C=C/C(=O)N1CC(F)(F)C1)NC(=O)[C@]1(F)CCN(S(=O)(=O)c2ccc(Br)cc2-c2cccc(Cl)c2)[C@H](C)C1 [Compound 155, (2R,4S)-1-((5-bromo-3′-chloro-[1,1′-biphenyl]-2-yl)sulfonyl)-N-((R,E)-5-(3,3-difluoroazetidin-1-yl)-5-oxopent-3-en-2-yl)-4-fluoro-2-methylpiperidine-4-carboxamide] | 300 | 305 | 106
CC(O)c1ccc(S(=O)(=O)N2CCC(F)(C(=O)N[C@H](C)/C=C/C(=O)N3CC(F)(F)C3)CC2)c(-c2ccccc2Cl)c1 (stereo partly drawn) [Compound 140, 1-((2′-chloro-5-(1-hydroxyethyl)-[1,1′-biphenyl]-2-yl)sulfonyl)-N-((R,E)-5-(3,3-difluoroazetidin-1-yl)-5-oxopent-3-en-2-yl)-4-fluoropiperidine-4-carboxamide] | 350 | 427 | 87.7
O=C(/C=C\CNC(=O)C1(F)CCN(S(=O)(=O)c2ccc(Br)cc2-c2ccccc2Cl)CC1)N1CC(F)(F)C1 [Compound 285, (Z)-1-((5-bromo-2′-chloro-[1,1′-biphenyl]-2-yl)sulfonyl)-N-(4-(3,3-difluoroazetidin-1-yl)-4-oxobut-2-en-1-yl)-4-fluoropiperidine-4-carboxamide] | 54.1 | 124 | 
C[C@H](/C=C\S(C)(=O)=O)NC(=O)[C@@]1(F)CCCN(C(=O)[C@H]2CN(CC(F)(F)F)C[C@H]2c2cccc(F)c2Cl)CC1 (single isomer, unassigned) [Compound 168, (R)-1-((3*R,4*R)-4-(2-chloro-3-fluorophenyl)-1-(2,2,2-trifluoroethyl)pyrrolidine-3-carbonyl)-4-fluoro-N-((R,Z)-4-(methylsulfonyl)but-3-en-2-yl)azepane-4-carboxamide] | 215 | 136 | 90.6
COc1ccc(C(=O)N2CCC[C@](F)(C(=O)N[C@@H]3C=CS(=O)(=O)C3)CC2)c(-c2ccccc2Cl)c1 [Compound 294, (R)-1-(2′-chloro-5-methoxy-[1,1′-biphenyl]-2-carbonyl)-N-((R)-1,1-dioxido-2,3-dihydrothiophen-3-yl)-4-fluoroazepane-4-carboxamide] | 120 | 2120 | 
C[C@H](/C=C\S(C)(=O)=O)NC(=O)[C@]1(F)CCN(S(=O)(=O)c2ccc(Br)cc2-c2cccc(Cl)c2)[C@H](C)C1 [Compound 145, (2R,4S)-1-((5-bromo-3′-chloro-[1,1′-biphenyl]-2-yl)sulfonyl)-4-fluoro-2-methyl-N-((R,Z)-4-(methylsulfonyl)but-3-en-2-yl)piperidine-4-carboxamide] | 270 | 131 | 102

Source: patent publication US20250026721A1, “COMPOUNDS AND METHODS FOR MODULATING RAS-PI3K” (Vividion Therapeutics, Inc., priority 2023, published 2025)
